According to US20120244619A1, “COMPOSITION FOR PROMOTING DIFFERENTIATION OF PLURIPOTENT STEM CELLS INTO CARDIAC MUSCLE CELLS WHICH COMPRISES NITROVIN” (KYOTO UNIVERSITY, priority 2009, published 2012):

Assays:
Format in all cases: cell-based
[1] = tested on: CMK 6.4 cynomolgus monkey ES cells; assay: Comparison of nitrovin and cytokines in cardiac muscle cell differentiation of monkey ES cells; settings: nitrovin 5 μM day 6-14; cytokines (bFGF, BMP4, VEGF, DKK1, Activin A) day 1-14; read at day 18
Text: Nitrovin and a mixture of cytokines (bFGF, BMP4, VEGF, DKK1, and Activin A) known as a promoter of cardiac muscle cell differentiation were compared as to increase of GFP fluorescence intensity, number of beating colonies of cardiac muscle cells, and expression of Troponin T, a marker of cardiac muscle cell differentiation.
As described in Example 1, a vector expressing green fluorescent protein (GFP) was introduced into monkey ES cell line (CMK 6.4 cynomolgus monkey ES cells). The culture medium was the same as described in Example 1. The monkey ES cells were seeded on 6-well culture plates and nitrovin (final concentration: 5 μM) or a mixture of cytokines (bFGF, BMP4, VEGF, DKK1, and Activin A) (final concentration: 5 ng/ml, 10 ng/ml, 10 ng/ml, 150 ng/ml, and 3 ng/ml, respectively) was added during day 6-14 of culture (nitrovin) or day 1-14 of culture (cytokines).

[2] = tested on: CMK 6.4 cynomolgus monkey ES cells; assay: Effect of nitrovin for promoting cardiac muscle cell differentiation of monkey ES cells
Description: As described in Example 1, a vector expressing green fluorescent protein (GFP) was introduced into monkey ES cell line (CMK 6.4 cynomolgus monkey ES cells). The monkey ES cells were seeded and cultured on 6-well culture plates (Asahi Glass/5816-006: Ezview culture plate) in 4.0×10^6 cells/well. The culture medium was the same as described in Example 1. At day 6 of culture, nitrovin was added at a final concentration of 1 μM, 5 μM, or 20 μM. At day 18 of culture, fluorescence intensity of GFP and number of beating colonies of cardiac muscle cells were determined. When nitrovin was added, the fluorescence intensity and number of beating colonies increased up to about 5 times and about 10 times higher, respectively (FIGS. 3-1 and 3-2).

[3] = tested on: human ES cell line (Kh−1); assay: Effect of nitrovin for promoting cardiac muscle cell differentiation of human ES cells; settings: nitrovin 1, 5 or 20 μM added at day 6, read at day 18
Description: As described in Example 1, a vector expressing green fluorescent protein (GFP) was introduced into human ES cell line (Kh−1). The human ES cells were seeded and cultured on 6-well culture plates (Asahi Glass/5816-006: Ezview culture plate) in 1.2×10^6 cells/well. The culture medium was the same as described in Example 1. At day 6 of culture, nitrovin was added at a final concentration of 1 μM, 5 μM, or 20 μM. At day 18 of culture, fluorescence intensity of GFP was determined.

[4] = tested on: CMK 6.4 cynomolgus monkey ES cells; assay: Screening of agents which promote cardiac muscle cell differentiation of monkey ES cells (α-MHC promoter-GFP, HCS); settings: 96-well, about 1-5 μM compound/well added day 6-14, read at day 14 of culture
Description: As described in FIG. 1, screening of agents which promote cardiac muscle cell differentiation of monkey ES cells was performed. A vector expressing green fluorescent protein (GFP) under control of a promoter of a-MHC gene, a marker of cardiac muscle cell differentiation, was introduced into monkey ES cell line (CMK 6.4 cynomolgus monkey ES cells) and the cells were seeded on 96-well culture plates (Greiner/655090: 96 well FIA black plate) in 5.0×10^2 cells/well, and cultured for 14 days in a differentiation medium for cardiac muscle cell differentiation (200 ml IMDM (Sigma 13390) containing 50 ml bovine fetal serum (GIBCO 10099-141), 2.5 ml MEM non-essential amino acid solution (Sigma M7145), 2.5 ml penicillin-streptomycin (GIBCO 15140), 2.5 ml 200 mM L-glutamine, 2 μl 2-mercaptoethanol (Sigma M7522), 255 μl 5N NaOH 255 μl). During day 6-14 of culture, 9,600 library compounds were added into separate wells (about 1-5 μM compound/well). Then, at day 14 of culture, GFP expression was determined by using HCS (high contents screening) system (Molecular device/MetaMorph imaging system). As a result, GFP fluorescence intensity was high in the wells added with nitrovin (FIG. 2).

[5] = nitrovin 1, 5 or 20 μM added at day 6, read at day 18, maximal increase vs control (DMSO)

## N=C(N)NN=C(/C=C/c1ccc([N+](=O)[O-])o1)/C=C/c1ccc([N+](=O)[O-])o1 [nitrovin]
[1]
  GFP fluorescence intensity compared to the mixture of cytokines: highly effective
  expression level of Troponin T compared to the mixture of cytokines: highly effective
  number of beating colonies compared to the mixture of cytokines: highly effective
[2]; among 1, 5 and 20 μM, GFP fluorescence intensity and beating colonies at day 18
  most effective final concentration: 5 µM
[2]; [5]
  increase of GFP fluorescence intensity: about 5 times
  increase of number of beating colonies of cardiac muscle cells: about 10 times
[3]
  GFP fluorescence intensity: increase of GFP fluorescence intensity induced by nitrovin was also observed
[4]
  GFP fluorescence intensity (GFP expression under α-MHC promoter): high
